Measurements: patent US20250170266A1 (ZYMEWORKS BC INC., priority 2022, published 2025)
Read-outs that look alike come from different tables or passages of the source.

Columns and labels:
Assay type in all cases: cell-based
hTLR7 = biological target: T1, hTLR7 (Homo sapiens, UniProt Q9NYK1); assay: Reporter Gene Assay (RGA), HEK-Blue hTLR7 reporter cells, SEAP readout; settings: overnight incubation, SEAP absorbance 620 nm
T1 construct: host or cells: HEK-Blue hTLR7 reporter cells (HEK293-derived, own knowledge)
T1 sequence (Q9NYK1 27-1049): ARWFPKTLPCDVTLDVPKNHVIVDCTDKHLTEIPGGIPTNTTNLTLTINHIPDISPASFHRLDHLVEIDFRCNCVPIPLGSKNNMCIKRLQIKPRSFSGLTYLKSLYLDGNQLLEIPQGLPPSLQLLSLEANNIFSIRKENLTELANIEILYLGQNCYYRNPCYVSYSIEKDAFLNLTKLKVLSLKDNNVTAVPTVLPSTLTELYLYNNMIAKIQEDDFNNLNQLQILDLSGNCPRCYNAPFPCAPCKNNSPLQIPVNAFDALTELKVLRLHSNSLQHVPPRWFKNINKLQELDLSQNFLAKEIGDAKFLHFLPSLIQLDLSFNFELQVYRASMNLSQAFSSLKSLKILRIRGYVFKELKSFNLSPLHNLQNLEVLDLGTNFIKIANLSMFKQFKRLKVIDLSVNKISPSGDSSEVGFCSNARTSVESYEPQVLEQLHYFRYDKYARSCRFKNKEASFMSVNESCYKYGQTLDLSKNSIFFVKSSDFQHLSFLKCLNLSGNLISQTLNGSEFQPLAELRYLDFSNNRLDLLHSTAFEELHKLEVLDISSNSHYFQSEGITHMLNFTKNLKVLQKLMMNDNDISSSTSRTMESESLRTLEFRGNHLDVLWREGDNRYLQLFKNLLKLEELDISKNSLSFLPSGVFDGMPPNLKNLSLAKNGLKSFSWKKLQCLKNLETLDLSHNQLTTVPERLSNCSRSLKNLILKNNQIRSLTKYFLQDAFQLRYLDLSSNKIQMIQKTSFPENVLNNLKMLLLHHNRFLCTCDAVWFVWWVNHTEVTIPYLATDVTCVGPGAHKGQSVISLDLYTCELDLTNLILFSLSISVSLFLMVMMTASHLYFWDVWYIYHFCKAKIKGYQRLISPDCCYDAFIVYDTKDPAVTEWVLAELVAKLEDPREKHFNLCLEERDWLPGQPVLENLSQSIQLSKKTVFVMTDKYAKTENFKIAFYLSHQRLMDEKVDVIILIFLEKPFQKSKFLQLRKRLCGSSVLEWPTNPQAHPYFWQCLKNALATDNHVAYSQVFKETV
Procedure: (§1) 1.5×10^4 HEK-Blue™ hTLR7 (Invivogen, San Diego, CA) or HEK-Blue™ mTLR7 (Invivogen, San Diego, CA) reporter cells were treated with a titration series of test compound (4-fold titration from […], 11 points). Compounds were initially diluted to 1 mM in DMSO and subsequently serial-diluted in assay media (HEK-Blue™ Detection; Invivogen, San Diego, CA). Cells with test compound were incubated overnight at 37° C.+5% CO2, and the amount of secreted embryonic alkaline phosphatase (SEAP) was determined by measuring absorbance (620 nm) using a Synergy™ H1 microplate reader.
(§2) Each assay included a positive control compound (referred to herein as “benchmark,” see, e.g., TABLE 3 below, and taken from International Patent Publication No. WO2017/072662, structure shown below) and a negative control (growth medium). […] The structure of the benchmark compound from International Patent Publication No. WO 2017/072662 is as follows: […]

mTLR7 = biological target: T2, mTLR7 (Mus musculus, UniProt P58681); assay: Reporter Gene Assay (RGA), HEK-Blue mTLR7 reporter cells, SEAP readout; settings: overnight incubation, SEAP absorbance 620 nm
T2 construct: host or cells: HEK-Blue mTLR7 reporter cells (HEK293-derived, own knowledge)
T2 sequence (P58681 27-1050): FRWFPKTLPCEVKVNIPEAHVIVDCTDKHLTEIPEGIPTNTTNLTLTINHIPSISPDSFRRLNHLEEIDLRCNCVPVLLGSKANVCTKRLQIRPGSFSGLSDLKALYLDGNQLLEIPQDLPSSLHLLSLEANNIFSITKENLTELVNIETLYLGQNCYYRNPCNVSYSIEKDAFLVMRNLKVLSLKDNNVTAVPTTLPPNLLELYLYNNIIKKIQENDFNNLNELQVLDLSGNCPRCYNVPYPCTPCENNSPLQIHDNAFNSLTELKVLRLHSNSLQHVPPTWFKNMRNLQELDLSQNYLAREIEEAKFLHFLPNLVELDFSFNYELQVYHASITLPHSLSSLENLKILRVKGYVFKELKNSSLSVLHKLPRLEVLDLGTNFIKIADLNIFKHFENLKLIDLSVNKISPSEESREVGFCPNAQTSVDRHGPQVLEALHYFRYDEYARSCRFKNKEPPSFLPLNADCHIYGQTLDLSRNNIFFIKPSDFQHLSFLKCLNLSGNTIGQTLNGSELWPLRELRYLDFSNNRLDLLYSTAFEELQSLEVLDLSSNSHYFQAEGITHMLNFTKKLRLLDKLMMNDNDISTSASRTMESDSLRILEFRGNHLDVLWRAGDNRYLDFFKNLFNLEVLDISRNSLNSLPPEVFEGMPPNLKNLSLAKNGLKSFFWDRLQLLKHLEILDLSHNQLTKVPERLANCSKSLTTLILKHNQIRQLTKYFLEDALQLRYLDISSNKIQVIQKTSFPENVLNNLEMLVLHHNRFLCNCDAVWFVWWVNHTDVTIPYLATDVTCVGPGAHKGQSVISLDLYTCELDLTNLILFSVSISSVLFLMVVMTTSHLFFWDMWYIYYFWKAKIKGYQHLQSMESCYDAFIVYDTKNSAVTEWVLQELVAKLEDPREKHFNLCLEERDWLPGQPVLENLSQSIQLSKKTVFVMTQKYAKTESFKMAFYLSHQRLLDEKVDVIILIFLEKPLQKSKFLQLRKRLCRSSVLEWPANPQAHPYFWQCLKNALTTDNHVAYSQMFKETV
Procedure: as §1, §2

[1] = system: Human peripheral blood mononuclear cells (PBMCs); assay: Human PBMC Assay, cytokine release (HTRF); settings: PBMC, 24 hours
Source text: Human peripheral blood mononuclear cells (PBMCs) were isolated from fresh Leukopak using magnetic separation. Briefly, erythrocytes and granulocytes were magnetically labeled with Erythrocyte Depletion MicroBeads (Miltenyi Biotec) and Granulocyte Depletion MicroBeads (Miltenyi Biotec), respectively. The cell suspension was loaded onto a Multi-24 Column Block (Miltenyi Biotec) and placed in the magnetic field of a MultiMACS Cell24 Separator Plus (Miltenyi Biotec). The unlabelled PBMCs were collected in the run through. PBMCs were resuspended in CryoStor® CS10 ([…]) and frozen. On the day before the assay, PBMCs were thawed in warm assay buffer (RPMI+10% FBS) and resuspended in assay buffer+10 ng/ml hIL3 (R&D Systems). Cells were rested at 37° C.+5% CO2 overnight. The following day, cells were spun down and resuspended in fresh assay buffer. 300,000 cells were added to each well of plates containing test compound. For test compound preparation, each compound was initially diluted to 1 mM in DMSO and further diluted in assay buffer. A 4-fold 11-point titration starting from 15 μM was performed. Cells were incubated with test compound at 37° C.+5% CO2 for 24 hours before supernatant was harvested. Human interleukin 6 (hIL6), human tumor necrosis factor alpha (hTNFα), and human interferon alpha (hIFNα) were quantified in the supernatant using homogeneous time resolved fluorescence (Cisbio).
as §2

[2] = hIFNα in supernatant, EC50 values approximated and divided into groups, read-out: PBMC IFNa EC50

CCOc1nc(N)c2nc(O)n(Cc3ccc(CN4CCN(C(=O)CCCCCNC(=O)CC(SC[C@@H](N)C(=O)O)C(=O)O)CC4)cc3OC)c2n1 (stereo partly drawn) [Compound 148, 2-(((S)-2-amino-2-carboxyethyl)thio)-4-((6-(4-(4-((6-amino-2-ethoxy-8-hydroxy-9H-purin-9-yl)methyl)-3-methoxybenzyl)piperazin-1-yl)-6-oxohexyl)amino)-4-oxobutanoic Acid]
EC50 (hTLR7): 167 nM
EC50 (mTLR7): 1260 nM
EC50 [1, 2]: > 10 nM

CCOc1nc(N)c2nc(O)n(Cc3ccc(CNC4CC5(CNC5)C4)cc3OC)c2n1 [Compound 130, 9-(4-(((2-azaspiro[3.3]heptan-6-yl)amino)methyl)-2-methoxybenzyl)-6-amino-2-ethoxy-9H-purin-8-ol]
EC50 (hTLR7): 202 nM
EC50 (mTLR7): 1270 nM
EC50 [1, 2]: > 10 nM

CCOc1nc(N)c2nc(O)n(Cc3ccc(CNC4CCNC4)cc3OC)c2n1 (stereo in doubt) [Compound 133, (S)-6-amino-2-ethoxy-9-(2-methoxy-4-((pyrrolidin-3-ylamino)methyl)benzyl)-9H-purin-8-ol]
EC50 (hTLR7): 178 nM
EC50 (mTLR7): 859 nM
EC50 [1, 2]: > 10 nM

CCOc1nc(N)c2nc(O)n(Cc3ccc(CNC4CNC4)cc3OC)c2n1 [Compound 129, 6-amino-9-(4-((azetidin-3-ylamino)methyl)-2-methoxybenzyl)-2-ethoxy-9H-purin-8-ol]
EC50 (hTLR7): 81.1 nM
EC50 (mTLR7): 541 nM
EC50 [1, 2]: > 10 nM

CCCCOc1nc(N)c2nc(O)n(Cc3ccc(CCN4CCC5(CCNCC5)CC4)cc3OC)c2n1 [Compound 177, 9-(4-(2-(3,9-diazaspiro[5.5]undecan-3-yl)ethyl)-2-methoxybenzyl)-6-amino-2-butoxy-9H-purin-8-ol]
EC50 (hTLR7): 411 nM
EC50 (mTLR7): 15500 nM
EC50 [1, 2]: > 10 nM

CCCCCNc1nc(N)nc2ccn(Cc3ccc(CN4CCN(CCNC(=O)CC(SC[C@@H](N)C(=O)O)C(=O)O)CC4)cc3OC)c12 (stereo partly drawn) [Benchmark, reference compound]
EC50 (hTLR7): 27 nM
EC50 (mTLR7): 95.4 nM

CCOc1nc(N)c2nc(O)n(Cc3ccc(CNCCCN4CCNCC4)cc3OC)c2n1 [Compound 131, 6-amino-2-ethoxy-9-(2-methoxy-4-(((3-(piperazin-1-yl)propyl)amino)methyl)-benzyl)-9H-purin-8-ol]
EC50 (hTLR7): 86.1 nM
EC50 (mTLR7): 676 nM
EC50 [1, 2]: > 10 nM

CCOc1nc(N)c2nc(O)n(Cc3ccc(CNC/C=C/CN)cc3OC)c2n1 [Compound 126, (E)-6-amino-9-(4-(((4-aminobut-2-en-1-yl)amino)methyl)-2-methoxybenzyl)-2-ethoxy-9H-purin-8-ol]
EC50 (hTLR7): 33 nM
EC50 (mTLR7): 659 nM
EC50 [1, 2]: > 10 nM

CCOc1nc(N)c2nc(O)n(Cc3ccc(CN4CCN(C(=O)CCOCCOCCOCCNC(=O)CC(SC[C@@H](N)C(=O)O)C(=O)O)CC4)cc3OC)c2n1 (stereo partly drawn) [Compound 149, (19S)-19-amino-1-(4-(4-((6-amino-2-ethoxy-8-hydroxy-9H-purin-9-yl)methyl)-3-methoxybenzyl)piperazin-1-yl)-16-carboxy-1,14-dioxo-4,7,10-trioxa-17-thia-13-azaicosan-20-oic Acid]
EC50 (hTLR7): 520 nM
EC50 (mTLR7): 1260 nM
EC50 [1, 2]: > 10 nM

CCOc1nc(N)c2nc(O)n(Cc3ccc(CNCC(O)CN4CCOCC4)cc3OC)c2n1 (stereo not drawn) [Compound 136, 6-amino-2-ethoxy-9-(4-(((2-hydroxy-3-morpholinopropyl)amino)methyl)-2-methoxybenzyl)-9H-purin-8-ol]
EC50 (hTLR7): 223 nM
EC50 (mTLR7): 1710 nM
EC50 [1, 2]: > 10 nM

CCOc1nc(N)c2nc(O)n(Cc3ccc(CNCCN4CCNCC4)cc3OC)c2n1 [Compound 134, 6-amino-2-ethoxy-9-(2-methoxy-4-(((2-(piperazin-1-yl)ethyl)amino)methyl)-benzyl)-9H-purin-8-ol]
EC50 (hTLR7): 363 nM
EC50 (mTLR7): 1650 nM
EC50 [1, 2]: > 10 nM

CCCCOc1nc(N)c2nc(O)n(Cc3ccc(CCNC4CCNCC4)cc3OC)c2n1 [Compound 179, 6-amino-2-butoxy-9-(2-methoxy-4-(2-(piperidin-4-ylamino)ethyl)benzyl)-9H-purin-8-ol]
EC50 (hTLR7): 181 nM
EC50 (mTLR7): 422 nM
EC50 [1, 2]: > 10 nM

CCOc1nc(N)c2nc(O)n(Cc3ccc(CNC4CCCNC4)cc3OC)c2n1 (stereo not drawn) [Compound 127, 6-amino-2-ethoxy-9-(2-methoxy-4-((piperidin-3-ylamino)methyl)benzyl)-9H-purin-8-ol]
EC50 (hTLR7): 175 nM
EC50 (mTLR7): 1030 nM
EC50 [1, 2]: > 10 nM

CCCCOc1nc(N)c2nc(O)n(Cc3ccc(CNCc4ccccc4)cc3OC)c2n1 [Compound 165, 6-amino-9-(4-((benzylamino)methyl)-2-methoxybenzyl)-2-butoxy-9H-purin-8-ol]
EC50 (hTLR7): < 0.1 nM
EC50 (mTLR7): < 0.1 nM
EC50 [1, 2]: < 0.1 nM
EC50 ([1]; hIL6 in supernatant, read-out: PBMC IL6 EC50): 6990 nM
